Target: T1, Nav1.8 channels (Homo sapiens, UniProt Q9Y5Y9)
T1 construct: expressed in transfected cells
Test: Manual patch-clamp, current of stably overexpressed Nav1.8 channels (resting state voltage program)
Type: cell-based
Conditions: for inhibition at 0.001 µM: concentration of 1 nM; for inhibition at 0.001 µM / inhibition at 0.01 µM: read-out: Inhibition rate %; for inhibition at 0.01 µM: concentration of 10 nM
Summary of the method: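 Whole-cell manual patch clamp on cells stably overexpressing Nav1.8, held at -120 mV and stepped to 0 mV for 50 ms every 20 s (resting-state protocol). Compounds were perfused in ascending concentrations, each for 5 min or until stable; block of peak current was calculated at steady state.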

T1 sequence (Q9Y5Y9 whole entry): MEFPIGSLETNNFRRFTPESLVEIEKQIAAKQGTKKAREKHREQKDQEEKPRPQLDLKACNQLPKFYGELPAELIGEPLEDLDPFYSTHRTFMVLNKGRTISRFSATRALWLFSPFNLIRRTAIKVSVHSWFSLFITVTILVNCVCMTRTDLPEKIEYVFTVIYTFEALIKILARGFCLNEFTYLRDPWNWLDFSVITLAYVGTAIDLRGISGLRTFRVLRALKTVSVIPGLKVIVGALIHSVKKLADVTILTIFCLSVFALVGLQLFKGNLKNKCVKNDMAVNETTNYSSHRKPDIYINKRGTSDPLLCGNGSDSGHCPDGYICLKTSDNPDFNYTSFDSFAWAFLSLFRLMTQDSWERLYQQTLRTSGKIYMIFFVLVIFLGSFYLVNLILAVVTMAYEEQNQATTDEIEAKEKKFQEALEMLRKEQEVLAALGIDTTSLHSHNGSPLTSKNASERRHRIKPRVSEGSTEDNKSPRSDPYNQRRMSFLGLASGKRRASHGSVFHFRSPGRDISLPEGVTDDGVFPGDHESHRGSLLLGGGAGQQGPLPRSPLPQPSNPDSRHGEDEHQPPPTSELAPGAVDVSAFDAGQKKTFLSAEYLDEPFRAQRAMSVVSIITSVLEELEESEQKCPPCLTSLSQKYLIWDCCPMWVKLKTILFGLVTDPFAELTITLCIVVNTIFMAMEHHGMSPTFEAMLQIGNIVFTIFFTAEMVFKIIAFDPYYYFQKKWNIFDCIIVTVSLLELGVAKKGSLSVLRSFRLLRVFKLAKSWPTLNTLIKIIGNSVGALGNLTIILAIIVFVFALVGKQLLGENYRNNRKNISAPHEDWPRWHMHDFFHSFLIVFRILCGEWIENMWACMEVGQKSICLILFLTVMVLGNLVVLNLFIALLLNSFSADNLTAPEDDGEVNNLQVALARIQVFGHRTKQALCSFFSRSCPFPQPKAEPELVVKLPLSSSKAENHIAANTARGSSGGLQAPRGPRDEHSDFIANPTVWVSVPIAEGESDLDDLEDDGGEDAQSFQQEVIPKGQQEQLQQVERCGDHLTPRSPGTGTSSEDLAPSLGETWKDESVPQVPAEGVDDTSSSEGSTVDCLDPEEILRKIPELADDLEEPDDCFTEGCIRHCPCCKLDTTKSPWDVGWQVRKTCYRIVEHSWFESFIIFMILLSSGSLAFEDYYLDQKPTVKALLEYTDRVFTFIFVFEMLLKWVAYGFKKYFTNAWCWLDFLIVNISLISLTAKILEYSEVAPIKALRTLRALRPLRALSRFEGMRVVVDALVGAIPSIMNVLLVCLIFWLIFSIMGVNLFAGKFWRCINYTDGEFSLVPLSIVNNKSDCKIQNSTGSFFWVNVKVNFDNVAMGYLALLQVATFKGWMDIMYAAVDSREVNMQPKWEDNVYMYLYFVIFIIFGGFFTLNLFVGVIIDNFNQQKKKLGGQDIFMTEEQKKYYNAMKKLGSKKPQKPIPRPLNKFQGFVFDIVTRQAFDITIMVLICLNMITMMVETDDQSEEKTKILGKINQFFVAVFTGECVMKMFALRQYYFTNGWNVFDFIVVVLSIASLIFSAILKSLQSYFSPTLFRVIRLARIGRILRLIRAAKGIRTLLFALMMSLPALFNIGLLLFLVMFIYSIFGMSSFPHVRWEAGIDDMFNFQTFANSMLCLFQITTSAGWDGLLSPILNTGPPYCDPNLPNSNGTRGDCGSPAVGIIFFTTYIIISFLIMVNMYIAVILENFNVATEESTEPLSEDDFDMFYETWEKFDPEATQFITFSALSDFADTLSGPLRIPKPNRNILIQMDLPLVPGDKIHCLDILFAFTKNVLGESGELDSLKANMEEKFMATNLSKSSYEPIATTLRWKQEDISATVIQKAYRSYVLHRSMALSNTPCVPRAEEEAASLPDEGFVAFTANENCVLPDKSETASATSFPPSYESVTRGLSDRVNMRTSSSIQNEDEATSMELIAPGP

## COc1c([C@@H]2C[C@](C)(C(F)(F)F)S[C@H]2C(=O)Nc2ccc(F)c(N=[N+]=[N-])c2)ccc(F)c1F [a-31-A, (2R,3S,5R)-N-(3-azido-4-fluorophenyl)-3-(3,4-difluoro-2-methoxyphenyl)-5-methyl-5-(trifluoromethyl)tetrahydrothiophene-2-carboxamide]
  inhibition at 0.001 µM: 81.9%

## COc1c([C@@H]2C[C@](C)(C(F)(F)F)S[C@H]2C(=O)Nc2cccc(B3OC(=O)CN(C)CC(=O)O3)c2)ccc(F)c1F [a-35-A, (2R,3S,5R)-3-(3,4-difluoro-2-methoxyphenyl)-5-methyl-N-(3-(6-methyl-4,8-dioxo-1,3,6,2-diazaborinin-2-yl)phenyl)-5-(trifluoromethyl)tetrahydrothiophene-2-carboxamide]
  IC50: 0.69 nM

## COc1c([C@@H]2C[C@](C)(C(F)(F)F)S[C@H]2C(=O)Nc2ccc3c(c2)S(=O)(=O)NC3=O)ccc(F)c1F [a-36-A, (2R,3S,5R)-3-(3,4-difluoro-2-methoxyphenyl)-N-(1,1-dioxide-3-oxo-2,3-dihydrobenzo[d]isothiazol-6-yl)-5-methyl-5-(trifluoromethyl)tetrahydrothiophene-2-carboxamide]
  inhibition at 0.01 µM: 83.7%

## COc1c([C@@H]2C[C@](C)(C(F)(F)F)S[C@H]2C(=O)Nc2cccc(OS(N)(=O)=O)c2)ccc(F)c1F [a-39-A, (3-((2R,3S,5R)-3-(3,4-difluoro-2-methoxyphenyl)-5-methyl-5-(trifluoromethyl)tetrahydrothiophene-2-carboxamido)phenyl sulfamate]
  inhibition at 0.001 µM: 72%

## COc1c([C@@H]2C[C@](C)(C(F)(F)F)S[C@H]2C(=O)Nc2cccc(C3N=N3)c2)ccc(F)c1F [a-41-A, (2R,3S,5R)-N-(3-(3H-diazirin-3-yl)phenyl)-3-(3,4-difluoro-2-methoxyphenyl)-5-methyl-5-(trifluoromethyl)tetrahydrothiophene-2-carboxamide]
  inhibition at 0.01 µM: 80.6%

## COc1c([C@@H]2C[C@](C)(C(F)(F)F)S[C@H]2C(=O)Nc2cccc(-c3ncon3)c2)ccc(F)c1F [a-42-A, (2R,3S,5R)-N-(3-(1,2,4-oxadiazol-3-yl)phenyl)-3-(3,4-difluoro-2-methoxyphenyl)-5-methyl-5-(trifluoromethyl)tetrahydrothiophene-2-carboxamide]
  inhibition at 0.001 µM: 42%

## COc1c([C@@H]2C[C@](C)(C(F)(F)F)S[C@H]2C(=O)Nc2nn(S(=O)(=O)C(F)(F)F)cc2C)ccc(F)c1F [a-43-A, (2R,3S,5R)-3-(3,4-difluoro-2-methoxyphenyl)-5-methyl-N-(4-methyl-1-((trifluoromethyl)sulfonyl)-1H-pyrazol-3-yl)-5-(trifluoromethane)tetrahydrothiophene-2-carboxamide]
  inhibition at 0.001 µM: 40.1%

## CCS(=O)(=O)Nc1cccc(NC(=O)[C@@H]2S[C@@](C)(C(F)(F)F)C[C@H]2c2ccc(F)c(F)c2OC)c1 [a-44-A, (2R,3S,5R)-3-(3,4-difluoro-2-methoxyphenyl)-N-(3-(ethylsulfonamido)phenyl)-5-methyl-5-(trifluoromethyl)tetrahydrothiophene-2-carboxamide]
  inhibition at 0.001 µM: 49.9%

## COc1c([C@@H]2C[C@](C)(C(F)(F)F)S[C@H]2C(=O)Nc2cccc(S(=O)(=O)NCCN)c2)ccc(F)c1F [a-45-A, (2R,3S,5R)-N-(3-(N-(2-aminoethyl)sulfamoyl)phenyl)-3-(3,4-difluoro-2-methoxyphenyl)-5-methyl-5-(trifluoromethyl)tetrahydrothiophene-2-carboxamide]
  IC50: 0.024 nM

## COc1c([C@@H]2C[C@](C)(C(F)(F)F)S[C@H]2C(=O)N(O)c2ccnc(-c3ncon3)c2)ccc(F)c1F [a-46-A, (2R,3S,5R)-N-(2-(1,2,4-oxadiazol-3-yl)pyridin-4-yl)-3-(3,4-difluoro-2-methoxyphenyl)-N-hydroxy-5-methyl-5-(trifluoromethyl)tetrahydrothiophene-2-carboxamide]
  inhibition at 0.001 µM: 46.7%

## COc1c([C@@H]2C[C@](C)(C(F)(F)F)S[C@H]2C(=O)Nc2ccnc(-c3ncon3)c2)ccc(F)c1F [a-48-A, (2R,3S,5R)-3-(3,4-difluoro-2-methoxy-phenyl)-5-methyl-N-[2-(1,2,4-oxadiazol-3-yl)-4-pyridyl]-5-(trifluoromethyl)tetrahydrothiophene-2-carboxamide]
  inhibition at 0.001 µM: 71.9%

## COc1c([C@@H]2C[C@](C)(C(F)(F)F)S[C@H]2C(=O)Nc2ccnc(SCN)c2)ccc(F)c1F [a-51-A, (2R,3S,5R)-N-(2-aminomethylthio-4-pyridyl)-3-(3,4-difluoro-2-methoxy-phenyl)-5-methyl-5-(trifluoromethyl)tetrahydrothiophene-2-carboxamide]
  inhibition at 0.001 µM: 88.5%

## COc1c([C@@H]2C[C@](C)(C(F)(F)F)S[C@H]2C(=O)Nc2cccc(NS(=O)(=O)CC(C)N)c2)ccc(F)c1F (stereo partly drawn) [a-56-A, (2R,3S,5R)-N-(3-((2-aminopropyl)sulfonamido)phenyl)-3-(3,4-difluoro-2-methoxyphenyl)-5-methyl-5-(trifluoromethyl)tetrahydrothiophene-2-carboxamide]
  inhibition at 0.001 µM: 66.4%

## COc1c([C@@H]2C[C@](C)(C(F)(F)F)S[C@H]2C(=O)Nc2ccnc(S(=O)(=O)N=[N+]=[N-])c2)ccc(F)c1F [a-66-A, 4-((2R,3S,5R)-3-(3,4-difluoro-2-methoxyphenyl)-5-methyl-5-(trifluoromethyl)tetrahydrothiophene-2-carboxamido)pyridine-2-sulfonyl azide]
  IC50: 0.26 nM

## COc1c([C@@H]2C[C@](C)(C(F)(F)F)S[C@H]2C(=O)Nc2ccnc(C3(C#N)CC3)c2)ccc(F)c1F [a-73-A, (2R,3S,5R)-N-(2-(1-cyanocyclopropyl)pyridin-4-yl)-3-(3,4-difluoro-2-methoxyphenyl)-5-methyl-5-(trifluoromethyl)tetrahydrothiophene-2-carboxamide]
  inhibition at 0.001 µM: 58.8%

## COc1c(C2CC(C)(C(F)(F)F)SC2C(=O)Nc2ccc(NC(=O)CN=[N+]=[N-])cc2)ccc(F)c1F (stereo not shown) [a-75-A, N-(4-(2-azidoacetamido)phenyl)-3-(3,4-difluoro-2-methoxyphenyl)-5-methyl-5-(trifluoromethyl)tetrahydrothiophene-2-carboxamide]
  inhibition at 0.001 µM: 55.2%

## COc1c([C@@H]2C[C@](C)(C(F)(F)F)S[C@H]2C(=O)Nc2ccnc(SC#N)c2)ccc(F)c1F [a-80-A, (2R,3S,5R)-3-(3,4-difluoro-2-methoxyphenyl)-5-methyl-N-(2-thiocyanatopyridin-4-yl)-5-(trifluoromethyl)tetrahydrothiophene-2-carboxamide]
  IC50: 0.19 nM

## COc1c([C@@H]2C[C@](C)(C(F)(F)F)S[C@H]2C(=O)Nc2ccc(F)c(C=O)c2)ccc(F)c1F [a-84-A, (2R,3S,5R)-3-(3,4-difluoro-2-methoxyphenyl)-N-(4-fluoro-3-formylphenyl)-5-methyl-5-(trifluoromethyl)tetrahydrothiophene-2-carboxamide]
  inhibition at 0.001 µM: 69.3%

## COc1c([C@@H]2C[C@](C)(C(F)(F)F)S[C@H]2C(=O)Nc2ccnc(C(=O)NO)c2)ccc(F)c1F [a-87-A, 4-((2R,3S,5R)-3-(3,4-difluoro-2-methoxyphenyl)-5-methyl-5-(trifluoromethyl)tetrahydrothiophene-2-carboxamido)-N-hydroxypicolinamide]
  inhibition at 0.001 µM: 47.7%
